Starred links: 1 amine or outer side, 2 acyl side, 3 side chain; linkers in the order of their positions; H or OH if unused. Positions of bridges follow the written chain, without caps; N, C: chain ends. Non-standard residues stand in square brackets, D forms with d. Residues, ends and D or L forms follow the SMILES beside them. *: point of attachment. X2 = CN(/C(=C/c1ccc(O)cc1)C(=O)[*:2])[*:1]; aThr = C[C@H](O)[C@H](N)C(=O)O; X1 = CCCCCc1ccccc1CCC(=O)*
Legend:
[1] = tested on: dogs; conditions: dog, in vivo, 12 mg/kg
Experimental: (§1) An injectable suspension containing the test compound and other ingredients mentioned below was administered into the knee joint of rabbits (6 males and 6 females) and dogs (3 males and 3 females) twice a week for 4 weeks. The dose was 8 mg/kg for rabbits and 12 mg/kg for dogs.

[2] = tested on: rabbits; conditions: rabbit, in vivo, 8 mg/kg
Experimental: as §1

For `CCCCCc1ccccc1CCC(=O)N[C@@H]1C(=O)N(C)/C(=C/c2ccc(O)cc2)C(=O)N[C@@H](CC(C)C)C(=O)N[C@H](Cc2ccccc2)C(=O)N[C@@H]([C@H](C)O)C(=O)N[C@@H](CC(N)=O)C(=O)N[C@@H](CO)C(=O)O[C@@H]1C` [tetrahydro-WS9326A] (X1-T[X2]L[dF][aThr]NS; ester 1-C), the death [1] was “caused death in neither rabbits nor dogs” and the death [2] was “caused death in neither rabbits nor dogs”.
